Assay results: paper PMC11765394, “Structure-Based Discovery of MolPort-137: A Novel Autotaxin Inhibitor That Improves Paclitaxel Efficacy” (International Journal of Molecular Sciences, 2025)

Assays:
autotaxin (ATX) [1] = molecular target: T1, autotaxin (ATX) (Homo sapiens, UniProt Q13822); test: biochemical; design: FS-3 fluorogenic substrate hydrolysis by purified recombinant human ATX, fluorescence read-out
T1 construct: gene ENPP2
Experimental: The purification of recombinant human ATX was carried out as reported earlier. The potential inhibitory effect of the hits identified through molecular modeling was assessed using the FS-3 assay, which measures fluorescence when the non-natural lipid-like FRET-established substance FS-3 (Echelon Biosciences, Salt Lake City, UT, USA) is hydrolyzed by ATX. A 60 μL volume of reaction mixture containing ATX assay buffer (pH 8.0, containing 10 μM BSA, 50 mM TRIS, […], 5 mM KCl, 1 mM CaCl2, and 1 mM MgCl2) was added to each well of a black-wall 96-well plate. Recombinant ATX was then added to achieve a final concentration of 4 nM. The compounds were dissolved in DMSO and transferred to a 96-well plate in technical triplicate. Single-dose testing was performed with a final well concentration of 10 μM, while dose–response assays involved eight different concentrations of the test compound. FS-3 was then added to achieve a concluding well strength of 1 μM, and fluorescence was quantified on a CLARIOstar Plus plate reader (BMG Labtech, Ortenberg, Baden-Württemberg, Germany) for two hours, with scans every two minutes at excitation/emission wavelengths of 485/528 nm. Percent activity was calculated relative to DMSO-treated control wells. […] Inhibition tests were conducted to target ATX-facilitated hydrolysis of FS3 (LPC homolog) using 15 compounds at 10 μM. Compounds inhibiting more than 50% of FS-3 hydrolysis were classified as hits. […] BMP-22, a known ATX inhibitor, served as a control with an IC50 of 0.2 ± 0.0 μM, consistent with reported values.

autotaxin (ATX) [2] = molecular target: T1, autotaxin (ATX); test: FS-3 fluorogenic substrate hydrolysis assay with […] purified recombinant human ATX; type: biochemical

inhibition at 10 µM (autotaxin (ATX) [1]) [%] | IC50 (autotaxin (ATX) [2]) [nM] | Compound
2.06 |  | Cc1ccc(NC(=O)Cn2nc3c(Oc4cccc(C)c4C)nc4ccccc4n3c2=O)cc1C [MolPort-240]
7.61 |  | Cc1cccc(CNC(=O)c2c(O)c3cccnc3n(-c3cccc(F)c3)c2=O)c1 [MolPort-914]
 | 200 | CCCCCCCCCCCCCCCc1ccc(CP(=O)(O)O)cc1 [BMP-22, reference compound]
5 |  | Cc1cc(-n2c(SCC(=O)Nc3ccc(F)c(F)c3)nc3n[nH]c(C)c3c2=N)ccc1Cl [MolPort-323]
15.5 |  | Cc1ccc(-c2noc(-c3nnn(Cc4nc(-c5ccccc5)oc4C)c3C)n2)cc1C [MolPort-122]
 | 1600 ± 200 | MolPort-137
10.8 |  | COc1cc(C=C2N=C(c3ccc(F)cc3)OC2=O)cc(I)c1OCc1cccc(C)c1 [MolPort-839]
7.1 |  | CCc1cccc(NC(=O)Cn2nc3c(Oc4ccccc4C)nc4ccccc4n3c2=O)c1 [MolPort-674]
27.2 |  | Cc1ccccc1NC(=O)c1nnn(Cc2nc(-c3cccc(Cl)c3)oc2C)c1C [MolPort-495]
-13.5 |  | Cc1cccc(-n2c(SCC(=O)Nc3ccc(C)c(C)c3)nc3[nH]nc(C)c3c2=N)c1 [MolPort-144]
29.7 |  | Cc1cc(C)cc(-n2c(CN3CCN(C(=O)Nc4ccccc4F)CC3)nc3cccnc32)c1 [MolPort-904]
26.4 |  | Cc1cc(C)cc(NC(=O)Cn2c(=O)nc(N3CCCC(C)C3)c3ccccc32)c1 (centres unmarked) [MolPort-616]
5.23 |  | Cc1cc(NC(=O)Cn2nc3c(Oc4ccccc4C)nc4ccccc4n3c2=O)ccc1Br [MolPort-311]
5.16 |  | Cc1cccc(NC(=O)Cn2nc3c(Oc4ccccc4C)nc4ccccc4n3c2=O)c1 [MolPort-161]
42 |  | COc1ccc(NC(=O)CSc2nc(=O)c3c(C)cc(C)nc3n2-c2cccc(C)c2C)cc1 [MolPort-072]
33.7 |  | COc1ccccc1-c1nc(Cn2nnc(-c3nc(-c4ccc(C)cc4)no3)c2C)c(C)o1 [MolPort-185]
75.9 |  | Cc1cc(F)ccc1NC(=O)c1cnn2c(=O)c3c(n(C)c12)CCN(Cc1ccccc1)C3 [MolPort-137]
